In patent publication US7507727B2, “Substituted quinobenzoxazine analogs and methods of using thereof” (Cylene Pharmaceuticals, Inc., priority 2003, dated 2009):

Assay: Subacute study of intravenously administered CX-3543 in dogs (safety and tolerance)
Assay type: in vivo
Method: This study determines the safety and tolerance of CX-3543 at three dose levels administered intravenously once daily to beagle dogs for five consecutive days. Safety parameters were monitored through observation, clinical pathology, and microscopic histopathology assessments. Selected animals also underwent blood sample collection for pharmacokinetic/toxicokinetic evaluation. All animals were also assessed with ECG evaluations to detect heart rhythm and/or conduction abnormalities.
The study was conducted using three (3) test article and one (1) control article group. The control article was the solution (5% dextrose in water) used to dilute the test article prior to administration and was administered at the same volume as the high dose. The test article dosage levels for this study were approximately 12, 3.8, and 1.2 mg/kg. Test and control articles were administered once by intravenous (IV) infusion over approximately a one hour period on five consecutive days. Blood samples for test article blood level analysis was taken as follows (i.e., pk/tk sampling): approximately 1 mL of blood was taken from three male and three female dogs in the low dose group at approximately 20 minutes and 40 minutes from the start of the infusion, and then at the end of infusion (Time 0) and at 5, 10, 15, and 30 minutes, and 1, 2, 4, 8, 12, and 24 hours from the end of the infusion after the first and fifth doses. Also, prior to and immediately after Dose 1 and after Dose 5 for all animals, and for recovery animals prior to necropsy, approximately 5-10 second ECG tracings in a lead II configuration were obtained. Animals were terminated one (1) or 15 days after the last dose. […]
Clinical Pathology: After overnight fasting and prior to the first dose (baseline; all animals) and then prior to each necropsy, blood samples are taken for hematology and clinical chemistry. For hematology assays, blood collected at baseline and prior to necropsy (fasted) are analyzed for erythrocyte count, hematocrit, MCH, leukocyte count, differential WC, MCHC, hemoglobin, MCV, platelet count, PT, and APTT. […]

CN1CCCC1CCNC(=O)c1cn2c3c(c(N4CCC(c5cnccn5)C4)c(F)cc3c1=O)Oc1cc3ccccc3cc1-2 (stereo not drawn) [CX-3543]
mortality (dog, in vivo): no mortality | tolerance (dogs, five consecutive daily doses at 12, 3.8 or 1.2 mg/kg, IV one-hour infusion, except injection-site inflammation and necrosis): toxicologically well tolerated | ECG monitoring (dogs, pre and post doses 1 and 5): No abnormalities were detected
